The source made the active and inactive calls. No cut-off for these calls is given here.

Assay [1] deals with HepG2. In words: Cytotoxicity against human HepG2 cells assessed as reduction in cell viability at 1.25 to 20 uM after 72 hrs by Hoechst 33342 staining based assay. The class given is functional. The settings on record: dose 1.25-20 µM.
The test system of assay [2] is Hep 3B2. In words: Cytotoxicity against human Hep3B cells assessed as reduction in cell viability at 1.25 to 20 uM after 72 hrs by Hoechst 33342 staining based assay. It counts as functional. Conditions: dose 1.25-20 µM.
For assay [3], the system named is PC-3. Nature of the assay: Cytotoxicity against human PC-3 cells assessed as reduction in cell viability at 1.25 to 20 uM after 72 hrs by Hoechst 33342 staining based assay. It counts as functional. Conditions: dose 1.25-20 µM.
For assay [4], the system named is MCF7. Nature of the assay: Cytotoxicity against human MCF7 cells assessed as reduction in cell viability at 1.25 to 20 uM after 72 hrs by Hoechst 33342 staining based assay. Conditions: dose 1.25-20 µM. It counts as functional.
In assay [5] the test system is A549. In words: Cytotoxicity against human A549 cells assessed as reduction in cell viability at 1.25 to 20 uM after 72 hrs by Hoechst 33342 staining based assay. The class given is functional. Conditions: dose 1.25-20 µM.
In assay [6] the target is Cellular tumor antigen p53 (Homo sapiens) (UniProt P04637). In words: Activation of P53 in human A549 cells assessed as increase in P53 phosphorylation at ser15 residues at 6 uM after 72 hrs by Western blot analysis. The class given is cell-based. Conditions: filed as activator. For orientation: Immunoblotting shows a protein as a band on a membrane.
Assay [7] has as its system Cellular tumor antigen p53 (Homo sapiens), P04637 [UNDEFINED MUTATION]. Nature of the assay: Activation of P53 mutant in human Hep3B cells assessed as increase in p21 protein expression at ser15 residues at 6 uM after 72 hrs by Western blot analysis. It counts as cell-based. The settings on record: filed as activator.
In assay [8] the target is Cellular tumor antigen p53 (Homo sapiens) (UniProt P04637). In words: Activation of P53 in human A549 cells assessed as increase in p21 protein expression at ser15 residues at 6 uM after 72 hrs by Western blot analysis. It counts as cell-based. Conditions: filed as activator.
For assay [9], the system named is Hep 3B2. In words: Induction of apoptosis in human Hep3B cells assessed as increase in P53 protein expression at 6 uM after 72 hrs by Western blot analysis. The class given is functional, cell-based.
In assay [10] the test system is Cellular tumor antigen p53 (Homo sapiens), P04637 [UNDEFINED MUTATION]. Nature of the assay: Activation of P53 mutant in human PC-3 cells assessed as increase in P53 phosphorylation at ser15 residues at 6 uM after 72 hrs by Western blot analysis. The class given is cell-based.
The nature of assay [11]: Activation of P53 in human HepG2 cells assessed as increase in P53 phosphorylation at ser15 residues at 6 uM after 72 hrs by Western blot analysis. Conditions: filed as activator.
Assay [12] deals with HepG2. Nature of the assay: Induction of apoptosis in human HepG2 cells assessed as increase in cleaved PARP level at 6 uM after 72 hrs by Western blot analysis. The class given is functional, cell-based.
In assay [13] the test system is A549. In words: Induction of apoptosis in human A549 cells assessed as increase in cleaved PARP level at 6 uM after 72 hrs by Western blot analysis. The class given is functional, cell-based.
Assay [14] addresses Cellular tumor antigen p53 (Homo sapiens) (UniProt P04637). In words: Activation of P53 in human HepG2 cells assessed as increase in p21 protein expression at ser15 residues at 6 uM after 72 hrs by Western blot analysis. Conditions: filed as activator. The class given is cell-based.
For assay [15] the target is unchanged. Nature of the assay: Activation of P53 in human MCF7 cells assessed as increase in P53 phosphorylation at ser15 residues at 6 uM after 72 hrs by Western blot analysis. The settings on record: filed as activator. The class given is cell-based.
For assay [16], the system named is MCF7. Nature of the assay: Induction of apoptosis in human MCF7 cells assessed as increase in P53 protein expression at 6 uM after 72 hrs by Western blot analysis. The class given is functional, cell-based.
In assay [17] the test system is HepG2. In words: Induction of apoptosis in human HepG2 cells assessed as increase in P53 protein expression at 6 uM after 72 hrs by Western blot analysis. It counts as functional, cell-based.
In assay [18] the test system is PC-3. In words: Induction of apoptosis in human PC-3 cells assessed as increase in cleaved PARP level at 6 uM after 72 hrs by Western blot analysis. The class given is functional, cell-based.
Assay [19] relates to Cellular tumor antigen p53 (Homo sapiens), P04637 [UNDEFINED MUTATION]. Nature of the assay: Activation of P53 mutant in human Hep3B cells assessed as increase in P53 phosphorylation at ser15 residues at 6 uM after 72 hrs by Western blot analysis. The class given is cell-based.
The subject of assay [20] is MCF7. Nature of the assay: Induction of apoptosis in human MCF7 cells assessed as increase in cleaved PARP level at 6 uM after 72 hrs by Western blot analysis. The class given is functional, cell-based.
Assay [21] deals with Hep 3B2. Nature of the assay: Induction of apoptosis in human Hep3B cells assessed as increase in cleaved PARP level at 6 uM after 72 hrs by Western blot analysis. It counts as functional, cell-based.
In assay [22] the test system is Cellular tumor antigen p53 (Homo sapiens), P04637 [UNDEFINED MUTATION]. In words: Activation of P53 mutant in human PC-3 cells assessed as increase in p21 protein expression at ser15 residues at 6 uM after 72 hrs by Western blot analysis. The class given is cell-based. Conditions: filed as activator.
For assay [23], the system named is A549. Nature of the assay: Induction of apoptosis in human A549 cells assessed as increase in P53 protein expression at 6 uM after 72 hrs by Western blot analysis. The class given is functional, cell-based.
Assay [24] concerns PC-3. In words: Induction of apoptosis in human PC-3 cells assessed as increase in P53 protein expression at 6 uM after 72 hrs by Western blot analysis. The class given is functional, cell-based.
Assay [25] concerns the target Cellular tumor antigen p53 (Homo sapiens) (UniProt P04637). Nature of the assay: Activation of P53 in human MCF7 cells assessed as increase in p21 protein expression at ser15 residues at 6 uM after 72 hrs by Western blot analysis. The class given is cell-based. The settings on record: filed as activator.

Sequence of Cellular tumor antigen p53 (Homo sapiens) (P04637 whole entry, looked up): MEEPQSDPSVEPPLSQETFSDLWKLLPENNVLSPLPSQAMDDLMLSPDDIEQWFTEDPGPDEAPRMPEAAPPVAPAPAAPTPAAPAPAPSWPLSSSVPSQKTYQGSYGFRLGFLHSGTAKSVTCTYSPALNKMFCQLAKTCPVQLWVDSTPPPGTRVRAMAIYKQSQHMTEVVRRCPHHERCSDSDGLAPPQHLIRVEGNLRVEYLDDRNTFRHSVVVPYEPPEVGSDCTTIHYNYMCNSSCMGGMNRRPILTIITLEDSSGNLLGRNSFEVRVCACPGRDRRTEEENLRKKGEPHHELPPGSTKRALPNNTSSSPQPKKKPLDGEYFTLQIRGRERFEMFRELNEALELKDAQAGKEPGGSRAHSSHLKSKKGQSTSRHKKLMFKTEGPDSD
Sequence of Cellular tumor antigen p53 (Homo sapiens), P04637 [UNDEFINED MUTATION] (P04637 whole entry, looked up, change not shown): as the sequence (P04637 whole entry, looked up) above

In the case of `COc1ccc(-c2cc3cc(CCO)c(OC)cc3o2)cc1`, the result in [1], in assay [2], in assay [3], in assay [4] and in assay [5] was inactive.
`COc1cc(CCO)cc2cc(-c3ccc(O)cc3)oc12`: the outcome in assay [6], in assay [1], in [2], in assay [7], in assay [8] and in assay [11] was Active. The outcome in assay [12], in [13], in assay [14], in [15], in [3] and in [16] was Active. In addition, the outcome in assay [17], in [18], in [20], in [21], in assay [4] and in [22] was Active. Moreover, the outcome in assay [23], in [5] and in assay [25] was Active. Moreover, the outcome in assay [9], in assay [10], in assay [19] and in assay [24] was inactive.
`COc1cc(CCO)cc2c(C)c(-c3ccc(O)cc3)oc12`: the outcome in [6], in [1], in [2], in assay [7], in [8] and in assay [11] was Active. The result in assay [12], in assay [13], in assay [14], in [15], in [3] and in [16] was Active. Moreover, the outcome in assay [17], in [18], in assay [20], in assay [21], in assay [4] and in [22] was Active. Further, the result in [23], in assay [5] and in assay [25] was Active. For the same molecule, the outcome in [9], in [10], in assay [19] and in assay [24] was inactive.
With `COc1cc2oc(-c3ccc(O)cc3)c(C)c2cc1CCO`, the result in [1], in assay [2], in assay [3], in [4] and in assay [5] was Active.
Regarding `COc1ccc(-c2oc3cc(OC)c(CCO)cc3c2C)cc1`, the result in assay [1], in assay [2], in [3], in assay [4] and in assay [5] was inactive.
In the case of `COc1ccc(-c2oc3c(OC)cc(CCO)cc3c2C)cc1`, the result in assay [1], in [2], in [3], in [4] and in [5] was inactive.
Regarding `COc1ccc(-c2cc3cc(CCO)cc(OC)c3o2)cc1`, the result in assay [1], in assay [2], in assay [3], in [4] and in [5] was inactive.
Consider `COc1cc2oc(-c3ccc(O)cc3)cc2cc1CCO`, for which the outcome in assay [6], in assay [1], in assay [2], in assay [7], in assay [8] and in assay [11] was Active. The result in assay [12], in assay [13], in assay [14], in assay [15], in [3] and in assay [16] was Active. The outcome in assay [17], in assay [18], in assay [20], in assay [21], in assay [4] and in assay [22] was Active. Besides, the outcome in assay [23], in assay [5] and in assay [25] was Active. The result in [9], in [10], in assay [19] and in assay [24] was inactive.

Source of the values: ChEMBL document CHEMBL4673254, “Synthesis and Cytotoxicity Studies of Bioactive Benzofurans from Lavandula agustifolia and Modified Synthesis of Ailanthoidol, Homoegonol, and Egonol” (J Nat Prod, 2020).
